The values below come from US20110288174A1, “Monohydrate of 4-(phenyl)ethyl]-amino}methyl)benzoic acid” (BAYER SCHERING PHARMA AKTIENGESELLSCHAFT, priority 2008, published 2011).

The series is described as follows: Stability of the solid forms (thermodynamic and storage stability). It is filed as physicochemical. The settings on record: for thermodynamic stability of the crystal form: solid form of the compound of the formula (I).

For `O=C(O)CCCCN(CCc1ccccc1OCc1ccc(CCc2ccccc2)cc1)Cc1ccc(C(=O)O)cc1` [modification IV, 4-({(4-Carboxybutyl)[2-(2-{[4-(2-phenylethyl)benzyl]oxy}phenyl)ethyl]amino}methyl)benzoic acid], the “thermodynamic stability of the crystal form” value is listed as “metastable”. Turning to `O=C(O)CCCCN(CCc1ccccc1OCc1ccc(CCc2ccccc2)cc1)Cc1ccc(C(=O)O)cc1` [monohydrate A, monohydrate of 4-({(4-carboxybutyl)[2-(2-{[4-(2-phenylethyl)benzyl]oxy}phenyl)ethyl]amino}methyl)benzoic acid in form A], the “thermodynamic stability of the crystal form” value was “thermodynamically stable”. Besides, the storage stability result (even after processing to aqueous suspensions) is “storage-stable”.
